# Results taken from PMC10974743, “Design, Synthesis, and Biological Evaluation of Novel Phenoxy Acetic Acid Derivatives as Selective COX-2 Inhibitors Coupled with Comprehensive Bio-Pharmacological Inquiry, Histopathological Profiling, and Toxicological Scrutiny” (Molecules, 2024).
# Test system: not given
# Test: not given
# Details: not given
row,Compound,melting point
1,"O=C(O)COc1ccccc1C=NNC(=O)Cc1ccccc1 [Compound 7a, 2-(2-((2-(2-Phenylacetyl)hydrazineylidene)methyl)phenoxy)acetic acid]",214 to 215 °C
2,O=C(O)COc1ccccc1/C=N/NC(=O)CNc1ccccc1 [Compound 10a],221 to 222 °C
3,"O=C(O)COc1ccccc1C=NNC(=O)CNC(=O)c1ccccc1 [Compound 13a, 2-(2-((2-(Benzoylglycyl)hydrazineylidene)methyl)phenoxy)acetic acid]",210 to 211 °C
4,"O=C(O)COc1ccc(Br)cc1C=NNC(=O)CNC(=O)c1ccccc1 [Compound 13b, 2-(2-((2-(Benzoylglycyl)hydrazineylidene)methyl)-4-bromophenoxy)acetic acid]",248 to 250 °C

# More lines, now with the values ahead:
row,melting point,Compound
1,209 to 211 °C,"O=C(O)COc1ccccc1C=NNC(=O)c1ccccc1 [Compound 5a, 2-(2-((2-Benzoylhydrazineylidene)methyl)phenoxy)acetic acid]"
2,222 to 223 °C,"Cc1ccc(C(=O)NN=Cc2ccccc2OCC(=O)O)cc1 [Compound 5b, 2-(2-((2-(4-Methylbenzoyl)hydrazineylidene)methyl)phenoxy)acetic acid]"
3,241 to 243 °C,"O=C(O)COc1ccccc1C=NNC(=O)c1ccc(Cl)cc1 [Compound 5c, 2-(2-((2-(4-Chlorobenzoyl)hydrazineylidene)methyl)phenoxy)acetic acid]"
4,236 to 238 °C,"Cc1ccc(NCC(=O)NN=Cc2ccccc2OCC(=O)O)cc1 [Compound 10b, 2-(2-((2-(4-Tolylglycyl)hydrazineylidene)methyl)phenoxy)acetic acid]"

# Biological target: T1, human COX-2 (Homo sapiens, UniProt P35354)
# T1 sequence (P35354 18-604): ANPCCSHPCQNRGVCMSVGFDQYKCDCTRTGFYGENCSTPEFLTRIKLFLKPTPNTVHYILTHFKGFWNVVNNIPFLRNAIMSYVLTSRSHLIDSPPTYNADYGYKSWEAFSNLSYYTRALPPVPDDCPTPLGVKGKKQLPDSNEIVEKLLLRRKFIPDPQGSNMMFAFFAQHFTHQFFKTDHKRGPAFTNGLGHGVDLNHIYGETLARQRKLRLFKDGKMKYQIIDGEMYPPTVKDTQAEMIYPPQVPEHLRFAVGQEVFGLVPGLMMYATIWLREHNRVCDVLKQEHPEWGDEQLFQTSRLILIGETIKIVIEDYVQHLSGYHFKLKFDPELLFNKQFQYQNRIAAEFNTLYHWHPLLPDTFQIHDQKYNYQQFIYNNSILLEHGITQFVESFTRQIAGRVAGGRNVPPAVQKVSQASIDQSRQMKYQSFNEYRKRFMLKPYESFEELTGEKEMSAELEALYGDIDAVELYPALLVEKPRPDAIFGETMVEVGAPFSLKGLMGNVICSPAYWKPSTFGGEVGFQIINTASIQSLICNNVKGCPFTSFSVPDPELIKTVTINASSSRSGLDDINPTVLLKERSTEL
# Test: In vitro COX-2 inhibition assay (Cayman colorimetric COX inhibitor screening kit)
# Details: COX-1 (IC50)/COX-2 (IC50)
row,Compound,SI (COX-2 selectivity index)
1,"O=C(O)COc1ccc(Br)cc1C=NNC(=O)c1ccccc1 [Compound 5d, 2-(2-((2-Benzoylhydrazineylidene)methyl)-4-bromophenoxy)acetic acid]",112.87
2,"O=C(O)COc1ccccc1C=NNC(=O)Cc1ccccc1 [Compound 7a, 2-(2-((2-(2-Phenylacetyl)hydrazineylidene)methyl)phenoxy)acetic acid]",76.92
3,O=C(O)COc1ccccc1/C=N/NC(=O)CNc1ccccc1 [Compound 10a],19.00
4,"O=C(O)COc1ccccc1C=NNC(=O)CNC(=O)c1ccccc1 [Compound 13a, 2-(2-((2-(Benzoylglycyl)hydrazineylidene)methyl)phenoxy)acetic acid]",36.65
5,"O=C(O)COc1ccc(Br)cc1C=NNC(=O)CNC(=O)c1ccccc1 [Compound 13b, 2-(2-((2-(Benzoylglycyl)hydrazineylidene)methyl)-4-bromophenoxy)acetic acid]",76.38

# Further lines, results first:
row,SI (COX-2 selectivity index),Compound
1,10.31,"O=C(O)COc1ccccc1C=NNC(=O)c1ccccc1 [Compound 5a, 2-(2-((2-Benzoylhydrazineylidene)methyl)phenoxy)acetic acid]"
2,20.27,"Cc1ccc(C(=O)NN=Cc2ccccc2OCC(=O)O)cc1 [Compound 5b, 2-(2-((2-(4-Methylbenzoyl)hydrazineylidene)methyl)phenoxy)acetic acid]"
3,111.53,"O=C(O)COc1ccccc1C=NNC(=O)c1ccc(Cl)cc1 [Compound 5c, 2-(2-((2-(4-Chlorobenzoyl)hydrazineylidene)methyl)phenoxy)acetic acid]"
4,15.06,"Cc1ccc(NCC(=O)NN=Cc2ccccc2OCC(=O)O)cc1 [Compound 10b, 2-(2-((2-(4-Tolylglycyl)hydrazineylidene)methyl)phenoxy)acetic acid]"

# Same assay, conditions: COX-2 IC50, mean ± SEM, n = 3
row,Compound,IC50
1,"O=C(O)COc1ccc(Br)cc1C=NNC(=O)c1ccccc1 [Compound 5d, 2-(2-((2-Benzoylhydrazineylidene)methyl)-4-bromophenoxy)acetic acid]",80 ± 10 nM
2,"O=C(O)COc1ccccc1C=NNC(=O)Cc1ccccc1 [Compound 7a, 2-(2-((2-(2-Phenylacetyl)hydrazineylidene)methyl)phenoxy)acetic acid]",130 ± 60 nM
3,O=C(O)COc1ccccc1/C=N/NC(=O)CNc1ccccc1 [Compound 10a],500 ± 100 nM
4,"O=C(O)COc1ccccc1C=NNC(=O)CNC(=O)c1ccccc1 [Compound 13a, 2-(2-((2-(Benzoylglycyl)hydrazineylidene)methyl)phenoxy)acetic acid]",230 ± 60 nM
5,"O=C(O)COc1ccc(Br)cc1C=NNC(=O)CNC(=O)c1ccccc1 [Compound 13b, 2-(2-((2-(Benzoylglycyl)hydrazineylidene)methyl)-4-bromophenoxy)acetic acid]",130 ± 60 nM

# Results, then the compound that gave them:
row,IC50,Compound
1,970 ± 60 nM,"O=C(O)COc1ccccc1C=NNC(=O)c1ccccc1 [Compound 5a, 2-(2-((2-Benzoylhydrazineylidene)methyl)phenoxy)acetic acid]"
2,370 ± 60 nM,"Cc1ccc(C(=O)NN=Cc2ccccc2OCC(=O)O)cc1 [Compound 5b, 2-(2-((2-(4-Methylbenzoyl)hydrazineylidene)methyl)phenoxy)acetic acid]"
3,130 ± 60 nM,"O=C(O)COc1ccccc1C=NNC(=O)c1ccc(Cl)cc1 [Compound 5c, 2-(2-((2-(4-Chlorobenzoyl)hydrazineylidene)methyl)phenoxy)acetic acid]"
4,330 ± 60 nM,"Cc1ccc(NCC(=O)NN=Cc2ccccc2OCC(=O)O)cc1 [Compound 10b, 2-(2-((2-(4-Tolylglycyl)hydrazineylidene)methyl)phenoxy)acetic acid]"

# Biological target: T2, ovine COX-1 (Ovis aries, UniProt P05979)
# T2 sequence (P05979 25-600): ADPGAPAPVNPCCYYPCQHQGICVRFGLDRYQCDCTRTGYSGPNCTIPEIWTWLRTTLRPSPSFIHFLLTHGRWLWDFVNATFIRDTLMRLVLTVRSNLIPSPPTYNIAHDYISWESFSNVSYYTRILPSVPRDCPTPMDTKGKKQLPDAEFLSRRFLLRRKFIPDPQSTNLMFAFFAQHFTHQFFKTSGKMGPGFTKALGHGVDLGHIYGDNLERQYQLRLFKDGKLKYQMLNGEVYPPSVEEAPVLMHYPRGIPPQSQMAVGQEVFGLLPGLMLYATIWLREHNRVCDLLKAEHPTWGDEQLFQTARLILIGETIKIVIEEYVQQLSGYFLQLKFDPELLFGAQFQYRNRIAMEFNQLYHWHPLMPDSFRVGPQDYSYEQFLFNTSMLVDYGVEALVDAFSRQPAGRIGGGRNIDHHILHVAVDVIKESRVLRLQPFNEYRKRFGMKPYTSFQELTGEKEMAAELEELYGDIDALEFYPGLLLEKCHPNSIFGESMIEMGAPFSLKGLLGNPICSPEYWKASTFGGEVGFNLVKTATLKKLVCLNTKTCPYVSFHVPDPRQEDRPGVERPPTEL
# Test: In vitro COX-1 inhibition assay (Cayman colorimetric COX inhibitor screening kit)
# Details: not given
row,Compound,IC50
1,"O=C(O)COc1ccc(Br)cc1C=NNC(=O)c1ccccc1 [Compound 5d, 2-(2-((2-Benzoylhydrazineylidene)methyl)-4-bromophenoxy)acetic acid]",9030 ± 150 nM
2,"O=C(O)COc1ccccc1C=NNC(=O)Cc1ccccc1 [Compound 7a, 2-(2-((2-(2-Phenylacetyl)hydrazineylidene)methyl)phenoxy)acetic acid]",10000 ± 200 nM
3,O=C(O)COc1ccccc1/C=N/NC(=O)CNc1ccccc1 [Compound 10a],9500 ± 200 nM
4,"O=C(O)COc1ccccc1C=NNC(=O)CNC(=O)c1ccccc1 [Compound 13a, 2-(2-((2-(Benzoylglycyl)hydrazineylidene)methyl)phenoxy)acetic acid]",8430 ± 120 nM
5,"O=C(O)COc1ccc(Br)cc1C=NNC(=O)CNC(=O)c1ccccc1 [Compound 13b, 2-(2-((2-(Benzoylglycyl)hydrazineylidene)methyl)-4-bromophenoxy)acetic acid]",9930 ± 120 nM

# More lines, now with the values ahead:
row,IC50,Compound
1,10000 ± 100 nM,"O=C(O)COc1ccccc1C=NNC(=O)c1ccccc1 [Compound 5a, 2-(2-((2-Benzoylhydrazineylidene)methyl)phenoxy)acetic acid]"
2,7500 ± 200 nM,"Cc1ccc(C(=O)NN=Cc2ccccc2OCC(=O)O)cc1 [Compound 5b, 2-(2-((2-(4-Methylbenzoyl)hydrazineylidene)methyl)phenoxy)acetic acid]"
3,14500 ± 200 nM,"O=C(O)COc1ccccc1C=NNC(=O)c1ccc(Cl)cc1 [Compound 5c, 2-(2-((2-(4-Chlorobenzoyl)hydrazineylidene)methyl)phenoxy)acetic acid]"
4,4970 ± 60 nM,"Cc1ccc(NCC(=O)NN=Cc2ccccc2OCC(=O)O)cc1 [Compound 10b, 2-(2-((2-(4-Tolylglycyl)hydrazineylidene)methyl)phenoxy)acetic acid]"

# Test system: carrageenan-induced paw edema
# Test: Carrageenan paw edema test (paw thickness, paw weight); note: test concentration or dose not given here
# Details: 1st h after carrageenan, oral, mean ± SD, n = 6
row,Compound,Paw thickness difference
1,"O=C(O)COc1ccc(Br)cc1C=NNC(=O)c1ccccc1 [Compound 5d, 2-(2-((2-Benzoylhydrazineylidene)methyl)-4-bromophenoxy)acetic acid]",1.37 ± 0.13 mm

# Same assay, conditions: 1st h, vs carrageenan group
row,Compound,Percentage of inhibition of paw thickness
1,"O=C(O)COc1ccc(Br)cc1C=NNC(=O)c1ccccc1 [Compound 5d, 2-(2-((2-Benzoylhydrazineylidene)methyl)-4-bromophenoxy)acetic acid]",30.57%

# Same assay, conditions: 2nd h after carrageenan, oral, mean ± SD, n = 6
row,Compound,Paw thickness difference
1,"O=C(O)COc1ccc(Br)cc1C=NNC(=O)c1ccccc1 [Compound 5d, 2-(2-((2-Benzoylhydrazineylidene)methyl)-4-bromophenoxy)acetic acid]",2.76 ± 0.24 mm

# Same assay, conditions: 2nd h, vs carrageenan group
row,Compound,Percentage of inhibition of paw thickness
1,"O=C(O)COc1ccc(Br)cc1C=NNC(=O)c1ccccc1 [Compound 5d, 2-(2-((2-Benzoylhydrazineylidene)methyl)-4-bromophenoxy)acetic acid]",16.19%

# Same assay, conditions: 3rd h after carrageenan, oral, mean ± SD, n = 6
row,Compound,Paw thickness difference
1,"O=C(O)COc1ccc(Br)cc1C=NNC(=O)c1ccccc1 [Compound 5d, 2-(2-((2-Benzoylhydrazineylidene)methyl)-4-bromophenoxy)acetic acid]",3.56 ± 0.33 mm

# Same assay, conditions: 3rd h, vs carrageenan group
row,Compound,Percentage of inhibition of paw thickness
1,"O=C(O)COc1ccc(Br)cc1C=NNC(=O)c1ccccc1 [Compound 5d, 2-(2-((2-Benzoylhydrazineylidene)methyl)-4-bromophenoxy)acetic acid]",15.67%

# Same assay, conditions: 4th h after carrageenan, oral, mean ± SD, n = 6
row,Compound,Paw thickness difference
1,"O=C(O)COc1ccc(Br)cc1C=NNC(=O)c1ccccc1 [Compound 5d, 2-(2-((2-Benzoylhydrazineylidene)methyl)-4-bromophenoxy)acetic acid]",3.7 ± 0.32 mm

# Same assay, conditions: 4th h, vs carrageenan group
row,Compound,Percentage of inhibition of paw thickness
1,"O=C(O)COc1ccc(Br)cc1C=NNC(=O)c1ccccc1 [Compound 5d, 2-(2-((2-Benzoylhydrazineylidene)methyl)-4-bromophenoxy)acetic acid]",26.75%

# Same assay, conditions: 5th h after carrageenan, oral, mean ± SD, n = 6
row,Compound,Paw thickness difference
1,"O=C(O)COc1ccc(Br)cc1C=NNC(=O)c1ccccc1 [Compound 5d, 2-(2-((2-Benzoylhydrazineylidene)methyl)-4-bromophenoxy)acetic acid]",3.90 ± 0.41 mm

# Same assay, conditions: 5th h, vs carrageenan group
row,Compound,Percentage of inhibition of paw thickness
1,"O=C(O)COc1ccc(Br)cc1C=NNC(=O)c1ccccc1 [Compound 5d, 2-(2-((2-Benzoylhydrazineylidene)methyl)-4-bromophenoxy)acetic acid]",26.51%

# Same assay, conditions: right vs left paw, after 5 h, mean ± SD, n = 6
row,Compound,Paw Weight Increase
1,"O=C(O)COc1ccc(Br)cc1C=NNC(=O)c1ccccc1 [Compound 5d, 2-(2-((2-Benzoylhydrazineylidene)methyl)-4-bromophenoxy)acetic acid]",76.92 ± 3.89 ^abcd %
